The values below come from patent publication US20210003556A1, “IMPROVING ANTI-PD-1 CANCER THERAPY” (Mayo Foundation for Medical Education and Research, priority 2018, published 2021).

Series [1] concerns CX3CR1^+ CD8^+ T cells. In kind it is cell-based, human. As for the experimental part:
FIG. 7 is a graph plotting CX3CR1^+ CD8^+ and CX3CR1^− CD8^+ T cell survival during treatment with doxorubicin (Dox) in vitro. […] N=4 donors.
(§1) Stimulation and culture of human T cells: Human CD8^+ T cells were purified using a human CD8^+ T cell enrichment kit (Stemcell). CD8^+ T cells were incubated with chemotherapy drugs (paclitaxel, carboplatin, or doxorubicin), either alone or with T cell activators (DYNABEADS®, human T-activator CD3/CD28 beads) for 24-48 hours, followed with staining for CX3CR1 and Granzyme B. ABCB1 inhibitor PGP4008 was purchased from Enzo Life Sciences (Farmingdale, N.Y.).
To determine the effect of chemotherapeutic treatment on survival of CX3CR1^+ and CX3CR1^− CD8^+ T cells, subsets of these cells were isolated, placed in 96 well plates at 2×10^5 cells/well, and incubated with doxorubicin (Dox) at 0.5 μg/ml for 40 hours.

The subject of series [2] is CX3CR1^+ CD8^+ T cells. Description: IL-15 treatment of human PBMC in vitro (proliferation/expansion of CX3CR1+ CD8+ T cells). It is filed as cell-based. As for the experimental part:
FIG. 8A is a flow cytometry plot showing representative CD122 expression by CX3CR1^+ CD8^+ T cells. FIG. 8B is a graph plotting CD122 expression by CX3CR1^+ and CX3CR1^− CD8^+ T cells in PBMC after incubation with PHA-L for 48 hours. […] FIG. 8C is a graph plotting proliferation of CX3CR1^+ CD8^+ T cells treated in vitro with human IL-15 for 48 hours.
FIG. 9 is a graph plotting % CX3CR1^+ Granzyme CD8^+ T cells among human peripheral blood mononuclear cells (PBMC) cultured with graded concentrations of rh-IL-15 for 24 hours in vitro.
For at least a couple of reasons, IL-15 may improve anti-PD-1 therapy for non-responsive tumors. First, the transcription of CD122 (IL-2 receptor beta) was increased in CD11a^high CD8^+ T cells in responders 25 compared to non-responders (FIG. 1B). […] Further, human PBMC were incubated with human IL-15 (10 ng/ml) or anti-CD3/CD28 beads for 48 hours, and proliferation of CX3CR1^+ CD8^+ T cells was assessed based on % Ki67^+ cells.
To test whether IL-15 directly contributes to the expansion of CX3CR1^+ Granzyme B^+ CD8^+ T cells, human recombinant IL-15 was incubated for 24 hours with PBMC isolated from healthy human donors, followed by flow cytometry analysis of CX3CR1^+ Granzyme B^+ CD8^+ T cells. […] Thus, IL-15 may improve the efficacy of PD-1 ICI therapy by expanding CX3CR1^+ Granzyme B^+ CD8^+ T cells that are capable of rejecting tumors.

Series [3] has as its system CX3CR1^+ CD8^+ T cells. Kind of series: CTL function (CD107a expression, IFN-γ production) of CD8+ T cells with ABCB1 inhibitor with or without CP. In kind it is cell-based, human. The note with it: anti-CD3/CD28 beads 24 hours. As for the experimental part:
as §1
Since the pharmacodynamics of doxorubicin may not be able to exactly reflect the efflux of carboplatin and paclitaxel (CP), and these drugs cannot be directly tracked due to lack of fluorescent capability, the impact of the drug transporter inhibitor on the function of T cells in the presence of CP was examined to determine whether T cell function might be dampened due to the reduced ability of T cells to efflux CP. ABCB1 transporter inhibitor (PGP4008) was incubated with resting or activated human primary CD8^+ T cells in vitro in the presence of CP. T cell function was measured by based pm degranulation (CD107a expression) and intracellular IFN-γ production.

Another series deals with metastatic melanoma. Description: Salvage chemotherapy added to anti-PD-1 in metastatic melanoma patients who failed PD-1 blockade. It is filed as in vivo, human. The settings on record: BRAF wild-type metastatic melanoma; pembrolizumab alone, then carboplatin and paclitaxel added, assessed three weeks after the combination. As for the experimental part: FIGS. 2A to 2C show patient responses to CIT with an increase of CX3CR1^+ Granzyme B^+ CD8^+ T cells. […] Given the disease progression while on pembrolizumab, paclitaxel, and carboplatin (white arrows) were initiated at 175 mg/m^2 and an AUC (area under curve) of 5 every 3 weeks for 2 cycles in combination with pembrolizumab. The patient received total of 12 cycles of pembrolizumab at the end of the follow up. FIG. 2B is a pair of flow cytometry plots showing CX3CR1 levels pre- and post-chemo, as indicated. Following the same schedule of treatment as in FIG. 2A, blood samples were collected for flow analysis of CX3CR1^+ Granzyme B^+ among CD11a^highCD8^+ T cells. […]
Patient information: The studies described herein were conducted according to Declaration of Helsinki principles. […] Response to treatment was evaluated according to standard clinical practice guidelines using Response Evaluation Criteria In Solid Tumors (RECIST) criteria. […]
The frequency of CX3CR1^+ Granzyme B^+ CD8^+ tumor-reactive T cells was examined before and after chemotherapy combined with anti-PD-1 therapy in patients with metastatic melanoma. […] The frequency of CX3CR1^+ Granzyme B^+ cells also was measured and compared in other responders and non-responders prior to and after chemotherapy. […]

The subject of another series is Bim^+ CD8^+ T cells. Description: % Bim+ CD8+ T cells in peripheral blood of metastatic melanoma patients after PD-1 ICI therapy. It is filed as in vivo, human. The note with it: 12 weeks after anti-PD-1 therapy; responders vs non-responders, first cohort. The source says: FIGS. 15A to 15D illustrate changes in Bim^+ CD8^+ T cells in response to PD-1 ICI therapy in patients with MM. FIG. 15A is a graph plotting percentages of changes in the frequency (%) of Bim^+ CD8^+ T cells in MM patients with progressive diseases (P, n=7) and responders (R, n=6) at 12-weeks after PD-1 therapy. **P<0.01, error bars, median with interquartile ranges. FIG. 15B is a series of images of metastatic melanoma (white arrows) in one patient with pseudo-progression at 12 weeks after PD-1 therapy. FIG. 15C is a graph plotting % Bim^+ CD8^+ T cells of the patient of FIG. 15B at baseline, 12 weeks, and 16 weeks after PD-1 therapy. FIG. 15D is a graph plotting the % change of Bim^+ CD8^+ T cells in a second cohort of melanoma patients (total 38) at 12 weeks after PD-1 therapy.
Further studies were conducted to examine and compare the frequency of Bim^+ cells among circulating CD11a^high CD8^+ T cells, since this population of T cells is enriched with tumor-reactive T cells (Liu et al., Oncoimmunology, 2013, 2:e23972). […] In addition, Bim levels (MFI) were positively correlated with PD-1 levels among CD11a^high CD8^+ T cells of cancer patients (FIG. 14B, P<0.01; Duraiswamy et al., J Immunol, 2011, 186:4200-4212). […] Therefore, measurement of the frequency of Bim^+ CD8^+ T cells can be used to the degree to which PD-1 signals have been blocked in cancer patients. […]

Consider `COc1cccc2c1C(=O)c1c(O)c3c(c(O)c1C2=O)C[C@@](O)(C(=O)CO)C[C@@H]3O[C@H]1C[C@H](N)[C@H](O)[C@H](C)O1` [doxorubicin], for which, in the series with CX3CR1^+ CD8^+ T cells [1] (human, 40 h, 0.5 μg/ml), the “apoptosis (Annexin V) of CD8+ T cells” value was “fewer CX3CR1^+ CD8^+ T cells (efflux cells) than CX3CR1^− CD8^+ T cells (non-efflux cells) underwent apoptosis” and the “percentage of Dox+/annexin V low (live) cells” value is listed as “higher in the CX3CR1^+ subset of CD8^+ T cells than in the CX3CR1^− CD8^+ subset”.

Turning to “human IL-15: human recombinant interleukin-15”, the “expansion of CX3CR1+ Granzyme B+ CD8+ T cells among PBMC” value with CX3CR1^+ CD8^+ T cells [2] (graded concentrations of rh-IL-15, 24 hours, healthy human donors) is given as “significantly increased the expansion”. Besides, the “proliferation of CX3CR1+ CD8+ T cells (% Ki67+ cells)” value in the series with CX3CR1^+ CD8^+ T cells [2] (human PBMC, human IL-15 10 ng/ml, 48 hours) is recorded as “increased proliferation”.

Regarding `O=C(Cc1ccccc1)Nc1c2c(nc3ccccc13)N(Cc1ccccc1)CC2` [PGP4008], the “apoptosis of CX3CR1+ CD8+ T cells after addition of ABCB1 inhibitor” value in the series with CX3CR1^+ CD8^+ T cells [1] (cultured with Doxorubicin 0.5 μg/ml for 40 hours plus PGP4008) is on record as “increased apoptosis”. In addition, the “function of CX3CR1+ CD8+ T cells (CD107a expression, IFN-γ production)” value in the series with CX3CR1^+ CD8^+ T cells [3] (in the absence of CP) was “not in the absence of CP”; in the series with CX3CR1^+ CD8^+ T cells [3] (in the presence of CP (carboplatin and paclitaxel)) it was “significantly inhibited the function”.

For the compound pembrolizumab: anti-PD-1 antibody, the “disease status (PET/CT) in one patient” value with metastatic melanoma was “rapid progression of metastatic melanoma in the peritoneum and liver”. Moreover, in the series on Bim^+ CD8^+ T cells, the “% Bim+ CD8+ T cells” value is on record as “significantly decreased in responders compared to non-responders”.
